# Legend:
# Hsp82 = Hsp82 (Saccharomyces cerevisiae, UniProt P02829); assay: Hsp82/ATPase test (malachite green or PK/LDH coupled method); format: biochemical; conditions: 1 μM Hsp82, 250 μM ATP, 37° C.; read-out: Hsp82 ATPase IC50
# Procedure, shortened: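 Percent inhibition of Hsp82 ATPase activity, measured either as phosphate release (malachite green complex, 620 nm, standard curve) after 60 min at 37 °C, or as initial rate of ADP formation via PK/LDH coupling (NADH decrease at 340 nm, 37 °C). Both formats used 1 μM enzyme, 250 μM ATP, HEPES-NaOH pH 7.5.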
# [1] = system: Her2 receptor expression at the surface of SKBr3 cells; assay: phenotypic SKBr3/HER2 cell test (Her2 surface expression by flow cytometry); format: cell-based; conditions: Homo sapiens, SK-BR-3, 24 h incubation, inhibition of Her2 expression
# Procedure, shortened: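 SKBr3 cells (Her2-overexpressing adenocarcinoma) treated 24 h with compound at varying concentrations, then stained with PE-anti-Her2 antibody 30 min at 4° C; surface Her2 measured by flow cytometry. IC50 from nonlinear fit of % inhibition of Her2 expression versus concentration.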
# Chain of Hsp82 (P02829 whole entry): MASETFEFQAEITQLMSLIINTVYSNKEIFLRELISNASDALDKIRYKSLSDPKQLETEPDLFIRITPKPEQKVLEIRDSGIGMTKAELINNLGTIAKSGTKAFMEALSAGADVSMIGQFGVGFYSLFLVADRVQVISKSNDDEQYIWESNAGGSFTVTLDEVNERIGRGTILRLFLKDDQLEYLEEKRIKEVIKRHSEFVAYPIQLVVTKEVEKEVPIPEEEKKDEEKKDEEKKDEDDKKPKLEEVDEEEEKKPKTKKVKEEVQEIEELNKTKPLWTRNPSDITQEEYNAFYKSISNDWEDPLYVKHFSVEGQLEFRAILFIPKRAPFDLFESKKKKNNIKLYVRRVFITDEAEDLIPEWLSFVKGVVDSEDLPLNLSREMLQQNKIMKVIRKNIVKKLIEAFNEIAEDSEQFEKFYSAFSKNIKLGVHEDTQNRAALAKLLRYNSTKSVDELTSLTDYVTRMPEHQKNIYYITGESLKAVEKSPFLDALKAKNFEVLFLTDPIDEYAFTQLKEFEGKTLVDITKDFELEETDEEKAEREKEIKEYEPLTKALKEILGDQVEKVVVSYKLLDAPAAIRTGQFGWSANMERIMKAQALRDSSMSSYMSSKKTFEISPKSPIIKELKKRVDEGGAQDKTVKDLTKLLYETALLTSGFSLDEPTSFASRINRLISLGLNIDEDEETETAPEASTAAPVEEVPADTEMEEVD
melting point,IC50 (Hsp82),IC50 [1],Structure (SMILES)
198 °C,< 1 µM,1 to 10 µM,"COc1cncc(-c2cccc3c2c2ccccc2n3-c2ccc(C(N)=O)c(NCCCO)c2)c1 [Example 66, 2-[(3-hydroxypropyl)amino]-4-[4-(5-methoxypyridin-3-yl)-9H-carbazol-9-yl]benzamide]"
168 °C,1 to 10 µM,1 to 10 µM,"NC(=O)c1ccc(-n2c3ccccc3c3c(-c4cncc(OCc5ccccc5)c4)cccc32)cc1NCCCO [Example 68, 4-{4-[5-(benzyloxy)pyridin-3-yl]-9H-carbazol-9-yl}-2-[(3-hydroxypropyl)amino]benzamide]"
180 °C,1 to 10 µM,1 to 10 µM,"NC(=O)c1ccc(-n2c3ccccc3c3c(-c4ccc(C(F)(F)F)nc4)cccc32)cc1NCCCO [Example 69, 2-[(3-hydroxypropyl)amino]-4-{4-[6-(trifluoromethyl)pyridin-3-yl]-9H-carbazol-9-yl}benzamide]"

# From patent publication US8309721B2, “HSP90 inhibitory carbazole derivatives, compositions containing same and use thereof” (Sanofi, priority 2008, dated 2012)
